Measurements published in US12226383B1, “Compositions containing short-chain fatty acid, methods of use, and methods of making thereof” (Velocity Life Sciences, LLC, priority 2024, dated 2025).

Columns and labels:
[1] = Exposure of powder sample at room temperature to air (hygroscopicity, storage stability); type: physicochemical; settings: for State of powder after exposure to air: exposed to air
From the text: The L-arginine butyrate prepared using ethanol as the sole solvent was a white to off-white powder.
The L-lysine butyrate prepared using ethanol as the sole solvent was a light, pale yellow to yellow powder.

[2] = Study to assess nootropic and related properties after oral administration; type: in vivo, human
Method: In another experiment, L-lysine butyrate in a dose range of 500 mg to 5,000 mg was administered as an aqueous solution to six individuals aged between 22 and 55 years, comprising two women and four men. […] The observed effects were dose-dependent, with larger doses of L-lysine butyrate providing greater effects and longer duration, lasting up to four hours.
In another experiment, L-lysine butyrate in a dose of 2 g, and on a separate occasion 5 g, was administered in encapsulated form, to 2 individuals. A further individual was administered L-lysine butyrate in a dose of 2 g in encapsuled form.

[3] = seven (7) days, room temperature

Substance	Hygroscopicity [1]	State of powder after exposure to air ([1]; 24 hours, room temperature)	State of powder after exposure to air [1, 3]	Time to reported effects after administration ([2]; 500 mg to 5,000 mg as aqueous solution, six individuals)	Effects reported by participants ([2]; 500 mg to 5,000 mg as aqueous solution, six individuals, dose-dependent)	Duration of effects ([2]; 500 mg to 5,000 mg as aqueous solution, larger doses longer duration)	Analgesic effect ([2]; oral administration, 2 g encapsulated, two of the individuals)	Mental effects ([2]; single oral administration of 2 g, encapsulated form)	Mental effects (undesirable) ([2]; single oral administration of 5 g, encapsulated form)	Calming effect in a baby ([2]; small dosage of 25 mg or 50 mg)	Storage stability of the solid ([1]; room temperature)	State of powder after exposure to air ([1]; thirty (30) days, room temperature)
L-arginine butyrate [reference compound]	quite hygroscopic	formed hard, rock-like clumps	significantly hydrated into, large solid masses	–	–	–	–	–	–	–	–	–
L-lysine butyrate	not hygroscopic	remained a fine, free-flowing yellow powder	remained a fine, free-flowing powder with no color change	thirty	more relaxed, less tired, more sociable, and able to concentrate on tasks more effectively	up to four	eliminating minor-to-moderate pain and discomfort	pleasant mental effects	undesirable mental effects	effective to calm a baby	stable to storage at room temperature	remained a fine, free-flowing powder
